{
  "source": "patent US9119821B2",
  "about": "“Use of methionine sulfoximine to treat acute liver failure and other diseases caused by an inflammatory cytokine response” (priority 2010, dated 2015)",
  "key": {"[1]": {"molecular_target": "γ-glutamylcysteine synthetase (GGCS) (Mus musculus, UniProt P97494)", "sequence (P97494 whole entry)": "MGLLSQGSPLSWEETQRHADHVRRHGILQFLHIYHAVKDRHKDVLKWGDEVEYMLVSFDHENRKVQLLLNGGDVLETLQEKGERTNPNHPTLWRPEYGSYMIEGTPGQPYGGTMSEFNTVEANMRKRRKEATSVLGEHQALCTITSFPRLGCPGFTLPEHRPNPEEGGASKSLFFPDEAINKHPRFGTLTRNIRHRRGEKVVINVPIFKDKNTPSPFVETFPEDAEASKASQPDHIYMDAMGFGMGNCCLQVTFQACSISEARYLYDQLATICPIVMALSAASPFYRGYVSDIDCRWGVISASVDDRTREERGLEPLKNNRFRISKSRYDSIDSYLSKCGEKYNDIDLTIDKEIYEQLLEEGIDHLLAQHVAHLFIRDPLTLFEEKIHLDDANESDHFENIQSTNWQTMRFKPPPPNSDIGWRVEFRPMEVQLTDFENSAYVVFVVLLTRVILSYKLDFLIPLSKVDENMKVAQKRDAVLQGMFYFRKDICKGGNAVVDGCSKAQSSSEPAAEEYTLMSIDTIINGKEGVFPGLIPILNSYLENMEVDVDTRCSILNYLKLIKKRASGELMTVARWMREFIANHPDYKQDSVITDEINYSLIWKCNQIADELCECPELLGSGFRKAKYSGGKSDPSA", "sequence (O09172 whole entry partner)": "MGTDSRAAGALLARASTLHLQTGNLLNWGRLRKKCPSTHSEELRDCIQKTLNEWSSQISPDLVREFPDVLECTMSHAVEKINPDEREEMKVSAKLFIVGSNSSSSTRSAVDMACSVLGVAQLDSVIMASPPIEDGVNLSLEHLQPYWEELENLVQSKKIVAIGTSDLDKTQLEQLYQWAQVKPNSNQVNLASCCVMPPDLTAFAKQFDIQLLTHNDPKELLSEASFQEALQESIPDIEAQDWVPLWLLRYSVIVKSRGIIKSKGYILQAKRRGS", "conditions": "liver extracts from LPS/D-GalN treated mice; 50 mg/kg; data not shown", "protocol": "Tissue and plasma were collected from male mice, which were divided into two groups. One group was injected with saline three hours prior to LPS/D-GalN injections. The second group was given MSO three hours prior to being injected with LPS/D-GalN. Control mice (t=0) were treated with MSO or saline for 3 hours and then euthanized (not exposed to LPS/D-GalN). After LPS/D-GalN injection at time zero, tissue and plasma samples were collected at one-hour time intervals from 1 to 5 hours.\nTo analyze enzyme activities liver homogenates were prepared from liver tissue excised and immediately homogenized in ice-cold buffer consisting of 250 mM sucrose, 10 mM Tris and 0.1 mM EGTA with protease inhibitor cocktail (Sigma #P8340). The homogenized tissue was centrifuged at 2375×g for 5 min. […]\nGlutamine synthetase was assayed as described by Meister, A. Glutamine synthetase from mammalian tissues. […] The reaction with the substrates glutamine and hydroxylamine was stopped using ferric chloride stop solution (0.37 M FeCl3, 0.67 M HCl, 0.20 M TCA) and the colorimetric product formed—γ-glutamyl hydroxamate—was measured at 535 nm. The absorbance values were converted to activities by comparison to a standard curve of pure glutamyl hydroxamate (a generous gift from Arthur J. Cooper, Department of Biochemistry and Molecular Biology, New York Medical College)."}, "[2]": {"tested_on": "CD1 mice injected with Jo2 antibody", "conditions": "mouse, in vivo", "protocol": "(§1) Animals were divided into two groups. Group one animals consisted of both male and female mice injected with LPS and D-GalN to induce hepatic failure. Survival was monitored post LPS/D-GalN administration and the time of injection was considered to be zero hour (t=0). Group two animals consisted of mice injected with MSO three hours prior to LPS and D-GalN administration. […] MSO (50 mg/kg body weight, Sigma #M5379) was also prepared in saline and administered IP. For analysis of the effect of MSO treatment on the cell death pathway activated by the Fas ligand, mice were pre-treated with MSO as described above, and at time zero were injected with Jo2 antibody ([…]).\n(§2) Animals were monitored continuously post LPS/D-GalN or Jo2 administration. […] The time of death was recorded as hours after LPS/D-GalN injection. Fisher's exact test was used to determine two-tailed p values for the statistical between the treated and untreated groups."}, "peritoneal macrophages [3]": {"tested_on": "peritoneal macrophages", "conditions": "for TNF-α in culture supernatant, average ELISA value: four hours after LPS, LPS control 527", "protocol": "Peritoneal macrophages were isolated from the abdomens of CD-1 mice, and 2×10^4 cells were added to each well of a 6-well cell culture plate. The cells were incubated in RPMI—1640 (with 2.05 mM glutamine) with 5% fetal calf serum and 1% penicillin/streptomycin (all solutions were from Hyclone) for 4 hours. The medium was then changed to remove any non-adherent cells, and the cells were again incubated in a 5% CO2 incubator for 16 hours. In each plate, one well was a negative control (no treatment), one well was a MSO control (9 mM) and one well was a LPS control (1 μg/ml LPS). The other three wells were treated with 9 mM MSO and 1 μg/ml LPS. One well was treated with MSO for 3 hours, and LPS was then added. In another well, LPS and MSO were added at the same time. Time of LPS addition was considered time zero. Four hours after LPS addition the cell culture medium was collected and 50 μL of the medium was mixed with 50 μl of blocking buffer and used for the TNF-α ELISA assay.\n(§3) Macrophages coordinate the early phases of LPS-induced inflammatory response, through the synthesis of TNF-α and other cytokines. In vitro experiments were conducted to directly test if MSO inhibits TNF-α production on LPS-stimulated macrophages obtained from mouse peritoneum. Macrophages were triggered with LPS with or without MSO, wherein the MSO was added either three hours before, one hour after, or at the same time as LPS. Four hours after LPS addition, TNF-α in the culture supernatant was quantitated by ELISA, as described in Methods."}, "[4]": {"tested_on": "CD1 mice treated with LPS/D-GalN", "experiment": "Survival of mice with LPS/D-GalN induced acute liver failure", "type": "in vivo, mouse", "conditions": "50 mg/kg IP three hours prior to LPS/D-GalN", "text": "Six to eight week old CD1 mice are obtained from Charles River. Animals were housed in Wayne State University or University of Padova, Vallisneri Interdepartmental Complex animal quarters until the time of the experiment. Food was withdrawn the night before the day of the experiment. All experiments were approved by the Animal Investigation Committee of Wayne State University or by the Authority of the University of Padova and authorized by the Italian Ministry of Health.\nas §1, with “MSO (50 mg/kg body weight, Sigma #M5379) was also prepared in saline and administered IP.” left out\nas §2"}, "MLP 29 cells": {"tested_on": "MLP 29 cells", "experiment": "Flow cytometry of apoptosis induced by TNF-α plus actinomycin D", "type": "cell-based, mouse", "experimental": "Output of multiparametric FACS analyses. Mouse liver progenitor cells, MLP 29, are incubated for one hour with either no addition (first lane, FIG. 3C(a)), 9 mM MSO (second lane, FIG. 3C(b)), or 9 mM BSO (third lane, FIG. 3C(c)), then exposed for 10 hours to either no addition—(BAS, first column), TNF-α plus actinomycin D (second column), or actinomycin D alone (third column). Viable cells (V) are delimited by the quadrant. Apoptotic cells display mitochondrial depolarization (reduced TMRM staining) and/or expose phosphatidylserine on their surface (increased Annexin V-FITC staining). Propidium iodide-positive, i.e. dead cells (PI), are evaluated on a PI vs TMRM diagram (not shown); these cells are excluded from the reported plots, but the percentage of propidium iodide positive (i.e. dead) cells is shown in each box (PI), as is the percentage of viable cells (V);\nSamples were analyzed on a FACSCalibur flow cytometer (Becton Dickinson, San Diego, Calif.). Data acquisition was performed using CellQuest software and data analysis with WinMD1 software. Each experiment was repeated at least four times."}, "peritoneal macrophages [5]": {"tested_on": "peritoneal macrophages", "conditions": "9 mM MSO, over the time course of the macrophage experiments", "protocol": "as §3"}, "STAT3": {"tested_on": "STAT3", "conditions": "liver homogenates; both LPS/D-GalN treated and untreated mice", "protocol": "(§4) Immunoblots of cleaved caspase-3 and phospho-STAT proteins: Liver homogenates were prepared from male mice five hours after IP administration of LPS/D-GalN. […] Glyceraldehyde-3-phosphate dehydrogenase (GAPDH—Chemicon, Milano, Italy) was used as a loading control)."}, "STAT1": {"tested_on": "STAT1", "conditions": "liver homogenates, five hours after LPS/D-GalN", "protocol": "as §4"}, "caspase-3": {"tested_on": "caspase-3", "conditions": "mouse, in vivo", "protocol": "as §4"}, "[6]": {"conditions": "i.p. injection of 50 mg/kg"}},
  "note": "Read-outs that look alike come from different tables or passages of the source.",
  "data": [
    {"smiles": "CS(=N)(=O)CC[C@H](N)C(=O)O", "note": "(some centres unmarked) [MSO, methionine sulfoximine]", "values": [
      {"measurement": "GGCS activity versus saline pre-treated mice", "setting": "[1]", "value": "same GGCS activities as extracts from mice pre-treated with saline"},
      {"measurement": "effect on survival after Fas pathway induction", "setting": "[2]", "value": "no effect on survival"},
      {"measurement": "TNF-α in culture supernatant, average ELISA value", "setting": "peritoneal macrophages [3]; 9 mM MSO added at the same time as LPS (1 μg/ml)", "value": 442, "unit": "pg/50 μL"},
      {"measurement": "TNF-α in culture supernatant, average ELISA value", "setting": "peritoneal macrophages [3]; 9 mM MSO added one hour after LPS (1 μg/ml)", "value": 430, "unit": "pg/50 μL"},
      {"measurement": "TNF-α in culture supernatant, average ELISA value", "setting": "peritoneal macrophages [3]; 9 mM MSO added three hours before LPS (1 μg/ml), 2 mM glutamine", "value": 393, "unit": "pg/50 μL"},
      {"measurement": "average reductions in TNF-α", "setting": "peritoneal macrophages [3]; 9 mM MSO, depending upon the time of addition", "value": "16-25%"},
      {"measurement": "female survival", "setting": "[4]; female CD1 mice, n=14, without pretreatment 27%, p<0.005", "value": 81, "unit": "%"},
      {"measurement": "male survival", "setting": "[4]; male CD1 mice, n=21, without pretreatment 19%, p<0.002", "value": 71, "unit": "%"},
      {"measurement": "rescue of cells from apoptosis induced by TNF-α", "setting": "MLP 29 cells", "value": "neither MSO nor BSO could rescue cells"},
      {"measurement": "effect on cell viability (trypan blue)", "setting": "peritoneal macrophages [5]", "value": "no effect"},
      {"measurement": "phosphorylated STAT3", "setting": "STAT3", "value": "decreased"},
      {"measurement": "increase in STAT1 activation by LPS/D-GalN", "setting": "STAT1", "value": "eliminated"},
      {"measurement": "caspase-3 activation", "setting": "caspase-3", "value": "completely prevented"},
      {"measurement": "lowering of plasma glutamine concentrations", "setting": "[6]", "value": "about 50%"}
    ]}
  ]
}
